Experimental data taken from patent publication US8269000B2, “Substituted pyrimidine and triazine compounds” (Gruenenthal GmbH, priority 2008, dated 2012).

Columns and labels:
human B1R = target: T1, human B1R (Homo sapiens, UniProt P46663); experiment: FLIPR Ca2+ functional study on bradykinin receptor 1 (hB1R CHO K1 cells); assay type: cell-based; details: % inhibition human B1R at 10 μM; for inhibition at 10 µM: read-out: % inh. (hum. B1R) 10 μM
T1 construct: expressed in transfected cells; host or cells: CHO K1 cells
T1 sequence (P46663 1-353): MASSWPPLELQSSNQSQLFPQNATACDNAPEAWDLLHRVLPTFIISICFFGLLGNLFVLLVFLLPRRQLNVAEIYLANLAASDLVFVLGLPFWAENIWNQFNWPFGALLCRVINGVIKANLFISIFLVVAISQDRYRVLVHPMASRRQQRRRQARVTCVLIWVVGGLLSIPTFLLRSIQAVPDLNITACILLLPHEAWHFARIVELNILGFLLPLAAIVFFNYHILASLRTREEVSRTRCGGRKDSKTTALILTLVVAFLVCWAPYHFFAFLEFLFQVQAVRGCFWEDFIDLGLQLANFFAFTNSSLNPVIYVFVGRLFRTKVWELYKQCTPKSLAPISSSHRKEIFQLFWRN
Method: The agonistic or antagonistic activity of substances can be quantified on the bradykinin receptor 1 (B1R) of the species human and rat using ectopically expressing cell lines (CHO K1 cells) and with the aid of a Ca^2+-sensitive dye (Fluo-4) using a fluorescent imaging plate reader (FLIPR). The indication in % activation is based on the Ca^2+ signal after addition of Lys-Des-Arg^9-bradykinin (0.5 nM) or Des-Arg^9-bradykinin (100 nM). Antagonists lead to suppression of the Ca^2+ influx after the addition of the agonist. % Inhibition compared with the maximum achievable inhibition is indicated.
The agonistic or antagonistic activity of substances can be determined on the bradykinin receptor 1 (B1R) of the species human and rat using the following assay. According to this assay, the Ca^2+ influx through the channel is quantified with the aid of a Ca^2+-sensitive dye (Fluo-4 type, Molecular Probes Europe BV, Leiden, Netherlands) using a Fluorescent Imaging Plate Reader (FLIPR, Molecular Devices, Sunnyvale, USA).
Chinese hamster ovary cells (CHO K1 cells) which have been stably transfected with the human B1R gene (hB1R cells) or with the B1R gene of the rat (rB1R cells) are used. For functional studies, the cells are plated out on black 96-well plates having a clear base (BD Biosciences, Heidelberg, Germany or Greiner, Frickenhausen, Germany) in a density of 20,000-35,000 cells/well. The cells are left overnight at 37° C. and with 5% CO2 in culture medium (hB1R cells: Nutrient Mixture Ham's F12, Gibco Invitrogen GmbH, Karlsruhe, Germany or DMEM, Sigma-Aldrich, Taufkirchen, Germany; rB1R cells: D-MEM/F12, Gibco Invitrogen GmbH, Karlsruhe, Germany), with 10 vol.% FBS (fetal bovine serum, Gibco Invitrogen GmbH, Karlsruhe, Germany or PAN Biotech GmbH, Aidenbach, Germany). On the following day, the cells are loaded for 60 minutes at 37° C. with 2.13 μM Fluo-4 (Molecular Probes Europe BV, Leiden, Netherlands) in HBSS buffer (Hank's buffered saline solution, Gibco Invitrogen GmbH, Karlsruhe, Germany) […] (Sigma-Aldrich, Taufkirchen, Germany) and 10 mM HEPES (Sigma-Aldrich, Taufkirchen, Germany). The plates are then washed twice with HBSS buffer, and HBSS buffer additionally containing 0.1% BSA (bovine serum albumin; Sigma-Aldrich, Taufkirchen, Germany), 5.6 mM glucose and 0.05% gelatin (Merck KGaA, Darmstadt, Germany) is added to the plates. After incubation for a further 20 minutes at room temperature, the plates are inserted into the FLIPR for Ca^2+ measurement. Alternatively, washing is carried out with buffer A (15 mM HEPES, 80 mM NaCl, 5 mM KCl, 1.2 mM CaCl2, 0.7 mM MgSO4, 2 g/l glucose, 2.5 mM probenecid) followed by loading with buffer A with added 2.5 μM Fluo-4 and 0.025% Pluronic F127 (Sigma-Aldrich, Taufkirchen, Germany). The cells are then washed twice with buffer A and incubated for 30 minutes at room temperature with buffer A additionally containing 0.05% BSA and 0.05% gelatin and are then inserted into the FLIPR for Ca^2+ measurement. The Ca^2+-dependent fluorescence is measured before and after the addition of substances (λex=488 nm, λem=540 nm). Quantification is carried out by measuring the highest fluorescence intensity (FC, fluorescence counts) over time.
The FLIPR protocol consists of two substance additions. Test substances (10 μM) are first pipetted onto the cells and the Ca^2+ influx is compared with the control (hB1R: Lys-Des-Arg^9-bradykinin>=50 nM; rB1R: Des-Arg^9-bradykinin 10 μM). This gives the activation in %, based on the Ca^2+ signal after addition of Lys-Des-Arg^9-bradykinin (>=50 nM) or Des-Arg^9-bradykinin (10 μM). After 10-20 minutes' incubation, Lys-Des-Arg^9-bradykinin (hB1R) or Des-Arg^9-bradykinin (rB1R) is applied in the concentration of the EC80, and the influx of Ca^2+ is likewise determined. Antagonists lead to suppression of the Ca^2+ influx. The % inhibition compared with the maximum achievable inhibition is calculated. […]

rat B1R = target: T2, rat B1R (Rattus norvegicus, UniProt P97583); experiment: FLIPR Ca2+ functional study on bradykinin receptor 1 (rB1R CHO K1 cells); assay type: cell-based; details: for inhibition at 10 µM: CHO-K1, % inhibition rat B1R at 10 μM, read-out: % inh. (rat B1R) 10 μM; for % inh. (rat B1R) 10 μM: % inhibition rat B1R at 10 μM
T2 construct: expressed in transfected cells; host or cells: CHO K1 cells
T2 sequence (P97583 1-337): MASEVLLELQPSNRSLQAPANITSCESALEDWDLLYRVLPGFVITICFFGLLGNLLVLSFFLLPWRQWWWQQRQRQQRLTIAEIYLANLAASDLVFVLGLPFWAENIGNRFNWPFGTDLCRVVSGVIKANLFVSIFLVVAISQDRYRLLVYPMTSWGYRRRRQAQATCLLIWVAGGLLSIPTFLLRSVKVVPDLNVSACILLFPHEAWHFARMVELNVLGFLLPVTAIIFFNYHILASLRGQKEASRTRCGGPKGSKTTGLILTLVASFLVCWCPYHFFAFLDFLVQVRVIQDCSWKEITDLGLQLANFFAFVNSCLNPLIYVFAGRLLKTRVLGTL
In short: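 Antagonism was calculated as % of maximal inhibition of the Ca2+ rise triggered by agonist at EC80 (Lys-Des-Arg9-bradykinin for hB1R, Des-Arg9-bradykinin for rB1R), added 10-20 min after test compound (10 μM or serial dilutions for IC50) to Fluo-4-loaded transfected CHO K1 cells on FLIPR. Duplicates or triplicates, ≥2 independent runs.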

Row | Compound | inhibition at 10 µM (human B1R) [%] | inhibition at 10 µM (rat B1R) [%] | % inh. (rat B1R) 10 μM (rat B1R; 10 µM) [%] | % inh. (hum. B1R) 10 μM (human B1R) [%] | % inh. (rat B1R) 10 μM (rat B1R) [%]
1 | COc1cc(C)c(S(=O)(=O)N2CCCCC2COc2nccc(N3CCC(OCCN4CCCC4)(c4cccnc4)CC3)n2)c(C)c1 (stereo not shown) [Example G-004, 2-[[1-(4-methoxy-2,6-dimethylphenyl)sulfonyl-2-piperidinyl]methoxy]-4-[4-(3-pyridyl)-4-(2-1-pyrrolidinylethoxy)-1-piperidinyl]pyrimidine] | 99 | 73 | – | – | –
2 | COc1cc(C)c(S(=O)(=O)N2CCCCC2COc2ccnc(N(C)CCN3CCC(c4ccccc4)(N(C)C)CC3)n2)c(C)c1 (stereo not shown) [Example H-004] | 99 | – | 93 | – | –
3 | COc1cc(C)c(S(=O)(=O)N(C)CCOc2nccc(N3CCC4(CCN(c5ccncc5)CC4)CC3)n2)c(C)c1 [G_CC-047, 4-methoxy-N,2,6-trimethyl-N-[2-[[4-[3-(4-pyridyl)-3,9-diazaspiro[5.5]undecan-9-yl]-2-pyrimidinyl]oxy]ethyl]benzenesulfonamide] | 100 | 99 | – | – | –
4 | COc1cc(C)c(S(=O)(=O)N2CCC[C@H]2COc2nccc(N3CCC4(CC3)C(=O)NCN4c3ccccc3)n2)c(C)c1 [G_CC-035, 8-[2-[[(2S)-1-(4-methoxy-2,6-dimethylphenyl)sulfonyl-2-pyrrolidinyl]methoxy]-4-pyrimidinyl]-4-phenyl-2,4,8-triazaspiro[4.5]decan-1-one] | -1 | 99 | – | – | –
5 | COc1cc(C)c(S(=O)(=O)N2CCCCC2COc2nccc(N3CCN(C4CCN(C)CC4)CC3)n2)c(C)c1 (stereo not shown) [G_CC-002, 2-[[1-(4-methoxy-2,6-dimethylphenyl)sulfonyl-2-piperidinyl]methoxy]-4-[4-(1-methyl-4-piperidinyl)-1-piperazinyl]pyrimidine] | 99 | 101 | – | – | –
6 | COc1cc(C)c(S(=O)(=O)N2CCCCC2COc2nccc(N3CCC(CCN4CCCCC4)CC3)n2)c(C)c1 (stereo not shown) [G_CC-026] | – | – | – | 97 | 100
7 | COc1cc(C)c(S(=O)(=O)N(C)CCOc2ccnc(N3CCN(c4ccncc4)CC3)n2)c(C)c1 [Example H-002] | 81 | 51 | – | – | –
8 | COc1cc(C)c(S(=O)(=O)N2CCCCC2COc2nccc(N3CCC4(CCN(Cc5ccccc5)C4=O)CC3)n2)c(C)c1 (stereo not shown) [G_CC-040, 3-benzyl-8-[2-[[1-(4-methoxy-2,6-dimethylphenyl)sulfonyl-2-piperidinyl]methoxy]-4-pyrimidinyl]-3,8-diazaspiro[4.5]decan-4-one] | 57 | 99 | – | – | –
9 | COc1cc(C)c(S(=O)(=O)N2CCCCC2COc2nccc(N3CCC(N4CCN(C)CC4)CC3)n2)c(C)c1 (stereo not shown) [G_CC-011, 2-[[1-(4-methoxy-2,6-dimethylphenyl)sulfonyl-2-piperidinyl]methoxy]-4-[4-(4-methyl-1-piperazinyl)-1-piperidinyl]pyrimidine] | 91 | 96 | – | – | –
10 | COc1cc(C)c(S(=O)(=O)N(CCOc2nccc(N3CC(N4CCc5cc(CN6CCC6)ccc5C4)C3)n2)C2CC2)c(C)c1 [Example G-020, N-[2-[[4-[3-[6-(1-azetidinylmethyl)-3,4-dihydro-1H-isoquinolin-2-yl]-1-azetidinyl]-2-pyrimidinyl]oxy]ethyl]-N-cyclopropyl-4-methoxy-2,6-dimethylbenzenesulfonamide] | 95 | 101 | – | – | –
11 | COc1cc(C)c(S(=O)(=O)N(CCOc2nccc(N3CCC4(CCC(Oc5ccncc5)CC4)CC3)n2)C2CC2)c(C)c1 [Example G-016, N-cyclopropyl-4-methoxy-2,6-dimethyl-N-[2-[[4-[9-(4-pyridyloxy)-3-azaspiro[5.5]undecan-3-yl]-2-pyrimidinyl]oxy]ethyl]benzenesulfonamide] | 96 | 99 | – | – | –
